In this experiment the target is T1, DP receptor (Homo sapiens, UniProt Q13258).
T1 construct: using the human cell line LS174T, which expresses the endogenous DP receptor; endogenous in cells; host or cells: LS174T human cell line
T1 sequence (Q13258 1-359): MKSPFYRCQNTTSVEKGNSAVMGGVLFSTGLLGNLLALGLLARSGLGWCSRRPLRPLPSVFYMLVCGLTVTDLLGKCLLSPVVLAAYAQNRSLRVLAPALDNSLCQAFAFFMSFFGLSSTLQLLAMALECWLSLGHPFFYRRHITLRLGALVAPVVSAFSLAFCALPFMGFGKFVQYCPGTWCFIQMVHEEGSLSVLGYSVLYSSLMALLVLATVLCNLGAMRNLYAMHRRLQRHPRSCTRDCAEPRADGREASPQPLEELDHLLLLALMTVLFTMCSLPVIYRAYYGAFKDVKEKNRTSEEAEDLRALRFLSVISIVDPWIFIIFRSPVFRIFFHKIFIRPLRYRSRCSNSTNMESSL
The experiment is described as follows: SPA cAMP assay in human LS174 T cells (human DP functional assay). It counts as cell-based. Particulars: inhibition of PGD2 (15 nM)-stimulated cAMP, LS174T cells expressing endogenous DP receptor. As for the experimental part: The inhibitory effects of the compounds according to the invention are assessed in a human DP functional assay. A cAMP assay is employed using the human cell line LS174T, which expresses the endogenous DP receptor. The protocol is similar to that described previously (Wright D H, Ford-Hutchinson A W, Chadee K, Metters K M, The human prostanoid DP receptor stimulates mucin secretion in LS174T cells, Br J Pharmacol. 131(8):1537-45 (2000)).
Protocol for SPA cAMP Assay in Human LS174 T Cells
• PGD2 (Cayman Chemical Cat#12010) • IBMX (Sigma Cat# 5879) • cAMP SPA direct screening assay system (Amersham code RPA 559) • 96-well cell plates (Wallac Cat# 1450-516) • Wallac 1450 Microplate Trilux scintillation counter (PerkinElmer) • Plate sealers • Eppendorf tubes • Dulbecco's Phosphate-Buffered Saline (PBS) (Invitrogen Cat#14040-133) • Distilled water • Vortex • Magnetic stirrer and stirrer bars Reagent Preparation:
All reagents should be allowed to equilibrate to room temperature before reconstitution.
Transfer the contents of the bottle to a 500 mL graduated cylinder by repeated washing with distilled water. Adjust the final volume to 500 mL with distilled water and mix thoroughly.
Dissolve each of the lysis reagents 1 and 2 in 200 mL assay buffer respectively. Leave at room temperature for 20 minutes to dissolve.
Add 30 mL of lysis buffer 2 to the bottle. Gently shake the bottle for 5 minutes.
Add 15 mL of lysis buffer 2 to each vial, and gently mix until the contents are completely dissolved.
Add 14 mL lysis buffer 2 to each vial and gently mix until the contents are completely dissolved.
Preparation of Immunoreagent
• 1) Add equal volumes of tracer, antiserum and SPA anti-rabbit reagent to a bottle, ensuring that a sufficient volume of this mixture is prepared for the desired number of wells (150 μL/well). • 2) Mix thoroughly. • 3) This immunoreagent solution should be freshly prepared before each assay and not re-used. Standard • 1) Add 1 mL lysis buffer 1 and gently mix until contents are completely dissolved. • 2) The final solution contains cAMP at a concentration of 512 pmol/mL. • 3) Label 7 polypropylene or polystyrene tubes, 0.2 pmol, 0.4 pmol, 0.8 pmol, 1.6 pmol, 3.2 pmol, 6.4 pmol and 12.8 pmol. • 4) Pipette 500 μL of lysis buffer 1 into all the tubes. • 5) Into the 12.8 pmol tube pipette 500 μL of stock standard (512 pmol/mL) and mix thoroughly. Transfer 500 μL from 12.8 pmol tube to the 6.4 pmol tube and mix thoroughly. Repeat this doubling dilution successively with the remaining tubes.
6) 50 μL aliquots in duplicate from each serial dilution and the stock standard will give rise to 8 standard levels of cAMP ranging from 0.2-25.6 pmol standard
Add 50 μL of […] IBMX into 100 mL PBS to make a final concentration of 100 μM and sonicate at 30° C. for 20 minutes.
Dissolve 1 mg PGD2 (FW, 352.5) in 284 μL DMSO to make 10 mM stock solution and store at […]. Before each assay, it is freshly prepared. Add 3 μL of 10 mM stock solution to 20 mL DMSO, mix it thoroughly, and transfer 10 mL to 40 mL PBS.
Compound dilution is carried out in Biomex 2000 (Beckman) using Method 1_cAMP DP 11 points.
5 μL of each compound from the 10 mM stock compound plates is transferred to the wells of a 96-well plate respectively as below.
Fill the plate with 45 μL of DMSO except column 7 is filled with 28 μL DMSO. Pipette column 1 thoroughly, and transfer 12 μL into column 7 parallel. Perform 1:10 serial dilution from column 1 to column 6 and from column 7 to column 11 by transfer 5 μL to 45 μL DMSO to make following concentrations:
Fill a new 96-well plate with 247.5 μL of compound dilution buffer. Transfer 2.5 μL of serially diluted compounds from above plate to the new plate (1:100 dilution) as following:
Cell Growth • 1. LS174 T are always grown in MEM (ATCC Cat# 30-2003), 10% FBS (ATCC Cat# 30-2020) and additional 2 mM L-glutamine, at 37° C. and 5% CO2. • 2. Warm 0.05% Trypsin and Versine (Invitrogen Cat# 25300-054) at 37° C. water bath. • 3. […]
In general terms: Cyclic AMP is a second messenger, typically raised through Gs and lowered through Gi signalling.
What is called IC50 is the concentration that gives 50% inhibition. In turn, `COC(=O)[C@@H](NC(=O)Cc1c(-c2ccc(Cl)c(S(=O)(=O)NC3CCCCC3)c2)[nH]c2ccccc12)C(C)C` [Example 3(a), (S)-2-{2-[2-(4-chloro-3-cyclohexylsulfamoyl-phenyl)-1H-indol-3-yl]-acetylamino}-3-methyl-butyric acid methyl ester] had a half-inhibitory concentration (IC50) of 160 nM.

`O=C(O)Cc1c(-c2ccc(Cl)c(S(=O)(=O)N3CCCCC3)c2)[nH]c2ccccc12` [Example 1(p), {2-[4-Chloro-3-(piperidine-1-sulfonyl)-phenyl]-1H-indol-3-yl}-acetic acid] had a 50% inhibitory concentration (IC50) of 678 nM.

With `COc1ccc(-c2[nH]c3ccccc3c2CC(=O)O)cc1S(=O)(=O)NC1CCCCC1` [Example 10(i), [2-(3-Cyclohexylsulfamoyl-4-methoxy-phenyl)-1H-indol-3-yl]-acetic acid], the IC50 is 63 nM.

For `O=C(O)Cc1c(-c2ccc(Cl)c(S(=O)(=O)NC3CCCCC3)c2)[nH]c2cc(Cl)ccc12` [Example 10(d), [6-Chloro-2-(4-chloro-3-cyclohexylsulfamoyl-phenyl)-1H-indol-3-yl]-acetic acid], the IC50 was found to be 1 nM.

In the case of `O=C(O)Cc1c(-c2ccc(Cl)c(S(=O)(=O)NCC34CC5CC(CC(C5)C3)C4)c2)[nH]c2ccccc12` [Example 1(m), (2-[4-Chloro-3-[(tricyclo[3.3.1.13.7]decan-1-ylmethyl)-sulfamoyl]-phenyl]-1H-indol-3-yl)-acetic acid], the half-maximal inhibitory concentration (IC50) was found to be 8.6 nM.

Molecule `CC(C)NS(=O)(=O)c1cc(-c2[nH]c3ccccc3c2CC(=O)O)ccc1Cl` [Example 1(g), [2-(4-Chloro-3-isopropylsulfamoyl-phenyl)-1H-indol-3-yl]-acetic acid] came in with an IC50 of 49 nM.

Molecule `O=C(O)Cc1c(-c2ccc(Cl)c(NS(=O)(=O)c3ccccc3)c2)[nH]c2ccccc12` [Example 13, [2-(3-benzenesulfonylamino-4-chlorophenyl)-1H-indol-3-yl]-acetic acid] showed an IC50 of 39 nM.

The molecule `O=C(O)Cc1c(-c2ccc(S(=O)(=O)NC3CCCCC3)cc2)[nH]c2ccccc12` [Example 10(h), [2-(4-Cyclohexylsulfamoyl-phenyl)-1H-indol-3-yl]-acetic acid] had an IC50 of 1160 nM.

In turn, `O=C(O)c1c(-c2ccc(Cl)c(S(=O)(=O)NC3CCCCC3)c2)[nH]c2ccccc12` [Example 15, 2-(4-Chloro-3-cyclohexylsulfamoyl-phenyl)-1H-indole-3-carboxylic acid] had an IC50 of 741 nM.

These data come from patent US20070265278A1, “2-PHENYL-INDOLES AS PROSTAGLANDIN D2 RECEPTOR ANTAGONISTS” (Aventis Pharmaceuticals Inc., priority 2005, published 2007).
